Measured values taken from EP0052492A1, “3-Aryloxy-3-phenylpropylamines” (ELI LILLY AND COMPANY, priority 1980, dated 1982).
Like-named read-outs stand apart in the source and are kept apart here.

Columns and labels:
[1] = test system: uptake of norepinephrine by synaptosomes isolated from the hypothalamus; test: In vitro uptake of [3H]norepinephrine by rat hypothalamus synaptosomes (method of Wong and Bymaster); format: biochemical, male Sprague-Dawley rats; settings: for Uptake: [3H]norepinephrine uptake
Protocol: (§1) Monoamine uptake inhibition was measured by the in vitro method of Wong and Bymaster, cited above. In this method, male Sprague-Dawley rats weighing 110-150 g. were killed by decapitation, and the whole brains were removed and dissected. Crude preparations of synaptosomes were prepared from 10% homogenates of specific areas of the brain in 0.32M sucrose and lOmM glucose by differential centrifugation, according to the method of Gray and Whittaker, J. Anat. 96, 79 (1962).
(§2) Uptake of [^3H]monoamines by synaptosomes was determined as follows. A portion of a synaptosome preparation equivalent to 1 mg. of protein was incubated at 37°. for 5 minutes in 1 or 3 ml. of Krebs bicarbonate medium containing an additional 10mM of glucose, 0.1mM iproniazid, ImM ascorbic acid, 0.17mM ethylenediaminetetraacetic acid and [3H]monoamine at a specified concentration. The incubation mixtures were immediately diluted with 2 ml. of ice-chilled Krebs bicarbonate buffer containing 1mM non-radioactive monoamine. Synaptosomes were harvested by centrifugation, and rinsed with 5 ml. of cold buffer into counting vials containing 10 ml. of scintillation fluid. Radioactivity was measured with a liquid scintillation spectrometer, and the amount of [^3H]- monoamine accumulated by the synaptosomes at 4° represented the background count and was subtracted from the results obtained on all samples.

[2] = test system: uptake of [3H]-norepinephrine, hypothalamus; test: Inhibition of norepinephrine uptake in hypothalamus homogenate after dosing live rats; format: in vivo, male Sprague-Dawley rats; settings: for inhibition at 10 mg/kg / ED50: Rattus norvegicus; for ED50: ip, read-out: ED50 value
Protocol: The test animals were male Sprague-Dawley rats weighing 110-150 g., which were treated in groups of 5 with the test compound at the doses and times specified, and were killed by decapitation. The hypothalamus was removed from each brain, and homogenized in a medium as described in the in vitro test above. Aliquots of the homogenate containing 1 mg. of protein were used; the incubation times, medium and temperature were as described in the test above.
The data were expressed another way by plotting the blood level of the compound against the rate of [^3H]norepinephrine uptake.

[3] = test system: uptake of norepinephrine by synaptosomes of the hypothalamus after 6-hydroxydopamine; test: Protection against 6-hydroxydopamine-induced loss of norepinephrine uptake; format: in vivo, male Sprague-Dawley rat; settings: Rattus norvegicus, ip; for ED50: antagonism of 6-hydroxydopamine, intraperitoneally
Excerpt: The neurotoxic agent 6-hydroxydopamine has the property of destroying norepinephrinergic terminals of the central and peripheral nervous systems.

[4] = target: strips of fresh guinea pig trachea, acetylcholine as the agonist; test: Anticholinergic activity in guinea pig tracheal strips, acetylcholine as agonist (Schild plot); format: cell-based; settings: for negative logarithm of the dissociation constant: acetylcholine as agonist, guinea pig trachea
Protocol: The test was carried out on 2mm. x 30mm. strips of fresh guinea pig trachea. The strips were suspended in 10 ml. organ baths containing physiological salt solution at 37.5°, and aerated with a mixture of 5% carbon dioxide and 95% oxygen. The tracheal strips were attached to isometric transducers connected to an automatic recorder, and were allowed to equilibrate under a tension of 2 g. for at least 2 hours before addition of drug. Dose-response curves were obtained by adding increasing concentrations of drug to the bath, in approximately 3-fold increments. […] Consecutive dose-response curves on a given tissue were always separated by 1 hour of washing with fresh physiological salt solution to assure maximum washout of drug.
Dissociation constants were determined using acetylcholine as the agonist. In this method, the ratio of concentrations of acetylcholine giving equal responses in the presence and in the absence of the compound of this invention was determined at various concentrations of the compound. […] The method of calculation is clearly discussed by Arunlakshana and Schild, Some Quantitative Uses of Drug Antagonists, Brit. J. Pharmacol. 14 48-58 (1959).

[5] = test system: reduction in body temperature caused by apomorphine; test: Apomorphine hypothermia antagonism test; format: in vivo, Mice; settings: for dose giving 50% antagonism of the hypothermia: compound intraperitoneally 30 minutes before apomorphine, temperature 30 minutes after
mice [6] = settings: mouse, in vivo
mice [7] = test: Acute toxicity in mice; settings: injected in mice
[8] = test system: dopamine uptake, synaptosomes isolated from the corpus striatum; test: In vitro uptake of [3H]dopamine by corpus striatum synaptosomes; format: biochemical, male Sprague-Dawley rats
Protocol: as §1
as §2, with “The incubation mixtures were immediately diluted with 2 ml. of ice-chilled Krebs bicarbonate buffer containing 1mM non-radioactive monoamine. Synaptosomes were harvested by centrifugation, and rinsed with 5 ml. of cold buffer into counting vials containing 10 ml. of scintillation fluid.” left out
(§3) The effect of the compound of this invention on the uptake of [^3H]serotonin and [^3H]dopamine was also determined, by the same test method, using synaptosomes isolated from the corpus striatum for the determination of dopamine uptake and synaptosomes of cerebral cortex for serotonin uptake.

[9] = test system: serotonin uptake, synaptosomes of cerebral cortex; test: In vitro uptake of [3H]serotonin by cerebral cortex synaptosomes; format: biochemical, male Sprague-Dawley rats
Protocol: as §1
as §2, with “The incubation mixtures were immediately diluted with 2 ml. of ice-chilled Krebs bicarbonate buffer containing 1mM non-radioactive monoamine. Synaptosomes were harvested by centrifugation, and rinsed with 5 ml. of cold buffer into counting vials containing 10 ml. of scintillation fluid.” left out
as §3

[10] = test system: canine cardiac conducting tissue, sometimes called Purkinje fibers; settings: dog
Excerpt: Another test applied to the compound was one designed to detect electrophysiological effects in canine cardiac conducting tissue, sometimes called Purkinje fibers.

[11] = Oral absorption (statement only); settings: in vivo
[12] = 4 h, four hours after administration, read-out: inhibition of norepinephrine uptake
[13] = inhibition of norepinephrine uptake, intraperitoneally, 1 hour before sacrifice
[14] = duration experiment up to 4 hours, read-out: maximum inhibition of norepinephrine uptake

With `CNCC[C@H](Oc1ccccc1C)c1ccccc1` [(+)-enantiomer, reference compound] the IC50 ([1]; norepinephrine uptake, hypothalamus synaptosomes, read-out: IC50 value, concentration which inhibited half of the uptake activity) was 40 nM, the inhibition at 10 mg/kg [2, 12] was 35% and the ED50 [2, 13] was 6.3 mg/kg. It also gave an inhibition at 10 mg/kg [2, 14] of 70%, an inhibition at 10 mg/kg ([2]; second hour after administration, read-out: inhibition of norepinephrine uptake) of 50% and an ED50 [3] of ~22 mg/kg. For the same compound, the “negative logarithm of the dissociation constant” value [4] was 6.04, the “dose giving 50% antagonism of the hypothermia” value [5] was 2.26 mg/kg and the antagonism ([5]; compound orally at 3 mg./kg., apomorphine intraperitoneally) was 50%. The “time after administration at which mice were still stimulated” value (mice [6]) was ≥ 5 h and the “doses at which no deaths occurred” value (mice [7]) was “below 90 mg./kg”.

With `CNCCC(Oc1ccccc1C)c1ccccc1.Cl` (racemic) [racemate, N-methyl-3-(2-methylphenoxy)-3-phenylpropylamine, hydrochloride, reference compound] the ED50 [2] was 3.4 mg/kg and the “negative logarithm of the dissociation constant” value [4] was 5.72.

For `CNCCC(Oc1ccccc1C)c1ccccc1.Cl` (single isomer, unassigned; (-)) [compound of this invention, (-)-N-methyl-3-(2-methylphenoxy)-3-phenylpropylamine, hydrochloride], the Uptake ([1]; concentration 1 x 10^-9M, control without drug 3.9 x 10^-12 moles/mg. protein) was 3.1 x 10^-12moles/mg. protein, the Uptake ([1]; concentration 2 x 10^-9M, control 3.9) was 2.2 x 10^-12moles/mg. protein and the Uptake ([1]; concentration 3 x 10^-9M, control 3.9) was 3.1 x 10^-12moles/mg. protein. For the same compound, the Uptake ([1]; concentration 10 x 10^-9M, control 3.9) was 1.4 x 10^-12moles/mg. protein, the Uptake ([1]; concentration 30 x 10^-9M, control 3.9) was 1.0 x 10^-12moles/mg. protein and the Uptake ([1]; concentration 50 x 10^-9M, control 3.9) was 0.9 x 10^-12moles/mg. protein. For the same compound, the Uptake ([1]; concentration 100 x 10^-9M, control 3.9) was 0.8 x 10^-12moles/mg. protein, the “potency in inhibiting the uptake of norepinephrine relative to the (+)-enantiomer” value ([1]; compared with the corresponding (+)-enantiomer) was “about 10 times” and the IC50 [8] was 4000 nM. The IC50 [9] was 1000 nM, the “uptake of [3H]-norepinephrine reduced from the control value” (from here on “uptake of [3H]-norepinephrine reduced”) ([2]; 1 mg./kg. intraperitoneally, 1 hour before sacrifice) was 35% and the “uptake of [3H]-norepinephrine reduced” value ([2]; 3 mg./kg. intraperitoneally, 1 hour before sacrifice) was 58%. For the same compound, the “uptake of [3H]-norepinephrine reduced” value ([2]; 10 mg./kg. intraperitoneally, 1 hour before sacrifice) was 68%, the inhibition at 10 mg/kg [2, 12] was ~65% and the ED50 [2, 13] was 2.1 mg/kg. For the same compound, the inhibition at 10 mg/kg [2, 14] was > 80%, the “ED50 concentration in blood plasma” value ([2]; blood level plotted against rate of [3H]norepinephrine uptake) was “about 14 x 10^-9 g./ml” and the inhibition at 1 mg/kg ([3]; 1 mg./kg. intraperitoneally before 6-hydroxydopamine, read-out: reduced the inhibition of uptake (by 6-hydroxydopamine)) was 15%. For the same compound, the inhibition at 3 mg/kg ([3]; 3 mg./kg. intraperitoneally before 6-hydroxydopamine, read-out: reduced the inhibition of uptake (by 6-hydroxydopamine)) was 43%, the inhibition at 6 mg/kg ([3]; 6 mg./kg. intraperitoneally before 6-hydroxydopamine, read-out: reduced the inhibition of uptake (by 6-hydroxydopamine)) was 70% and the ED50 [3] was 4 mg/kg. The “anticholinergic activity relative to the (+)-enantiomer” value ([4]; fraction of the activity of the (+)-enantiomer) was 1/6, the “anticholinergic activity relative to the racemate” value ([4]; fraction of the activity of the racemate) was 1/3 and the “dose giving 50% antagonism of the hypothermia” value [5] was 0.16 mg/kg. The highest antagonism ([5]; compound orally at 1 mg./kg., apomorphine intraperitoneally) was 35%, the “concentration that suppressed the rate of rise and duration of the action potential” value [10] was 8 µM and the oral absorption [11] was “orally absorbed”. The “doses at which no deaths occurred” value (mice [7]) was “below 90 mg./kg”.
